In PubChem BioAssay (NCI):
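Five compound concentrations were applied to cells in 96-well plates for 48 hours; endpoints were derived by simple linear interpolation of the resulting dose-response curve. TGI is the concentration that stops growth completely.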

Tests used:
Assay in all cases: NCI anticancer screen, dose series, 48 h
T-47D breast = tested on: T-47D breast
HOP-62 NSCLC = tested on: HOP-62 NSCLC
SR leukemia = tested on: SR leukemia
SNB-19 CNS = tested on: SNB-19 CNS
K-562 leukemia = tested on: K-562 leukemia
U251 CNS = tested on: U251 CNS
A549 NSCLC = tested on: A549 NSCLC
NCI-H23 lung = tested on: NCI-H23 lung
NCI-H522 lung = tested on: NCI-H522 lung
ACHN renal = tested on: ACHN renal
CCRF-CEM leukemia = tested on: CCRF-CEM leukemia
DU-145 prostate = tested on: DU-145 prostate
IGROV1 ovarian = tested on: IGROV1 ovarian
UACC-257 melanoma = tested on: UACC-257 melanoma
EKVX NSCLC = tested on: EKVX NSCLC
CAKI-1 renal = tested on: CAKI-1 renal
HCT-116 colon = tested on: HCT-116 colon
HS 578T breast = tested on: HS 578T breast
SF-295 CNS = tested on: SF-295 CNS
HCC-2998 colon = tested on: HCC-2998 colon
OVCAR-4 ovarian = tested on: OVCAR-4 ovarian
SK-MEL-28 melanoma = tested on: SK-MEL-28 melanoma
MCF7 breast = tested on: MCF7 breast
TK-10 renal = tested on: TK-10 renal
NCI-H460 lung = tested on: NCI-H460 lung
NCI-H226 lung = tested on: NCI-H226 lung
LOX IMVI melanoma = tested on: LOX IMVI melanoma
OVCAR-8 ovarian = tested on: OVCAR-8 ovarian
SF-268 CNS = tested on: SF-268 CNS
SNB-75 CNS = tested on: SNB-75 CNS
SK-MEL-2 melanoma = tested on: SK-MEL-2 melanoma
UACC-62 melanoma = tested on: UACC-62 melanoma
SW-620 colon = tested on: SW-620 colon
MDA-MB-231 breast = tested on: MDA-MB-231 breast
BT-549 breast = tested on: BT-549 breast
MDA-N = tested on: MDA-N
SK-MEL-5 melanoma = tested on: SK-MEL-5 melanoma
786-0 renal = tested on: 786-0 renal
KM12 colon = tested on: KM12 colon
SK-OV-3 ovarian = tested on: SK-OV-3 ovarian
A498 renal = tested on: A498 renal
MDA-MB-435 = tested on: MDA-MB-435
HCT-15 colon = tested on: HCT-15 colon
MOLT-4 leukemia = tested on: MOLT-4 leukemia
COLO 205 colon = tested on: COLO 205 colon
M14 melanoma = tested on: M14 melanoma
HT29 colon = tested on: HT29 colon
PC-3 prostate = tested on: PC-3 prostate
HOP-92 NSCLC = tested on: HOP-92 NSCLC
OVCAR-5 ovarian = tested on: OVCAR-5 ovarian
RXF 393 renal = tested on: RXF 393 renal
SN12C renal = tested on: SN12C renal
RPMI-8226 leukemia = tested on: RPMI-8226 leukemia
SF-539 CNS = tested on: SF-539 CNS
NCI/ADR-RES ovarian = tested on: NCI/ADR-RES ovarian
OVCAR-3 ovarian = tested on: OVCAR-3 ovarian
MALME-3M melanoma = tested on: MALME-3M melanoma
HL-60(TB) leukemia = tested on: HL-60(TB) leukemia

CCCCCCCCCCCCNC(=O)NCC(OCC)OCC
TGI (T-47D breast): > 10 µM
TGI (HOP-62 NSCLC): > 10 µM
TGI (SR leukemia): > 10 µM
TGI (SNB-19 CNS): > 10 µM
TGI (K-562 leukemia): > 10 µM
TGI (U251 CNS): > 10 µM
TGI (A549 NSCLC): > 10 µM
TGI (NCI-H23 lung): > 10 µM
TGI (NCI-H522 lung): > 10 µM
TGI (ACHN renal): > 10 µM
TGI (CCRF-CEM leukemia): > 10 µM
TGI (DU-145 prostate): > 10 µM
TGI (IGROV1 ovarian): > 10 µM
TGI (UACC-257 melanoma): > 10 µM
TGI (EKVX NSCLC): > 10 µM
TGI (CAKI-1 renal): > 10 µM
TGI (HCT-116 colon): > 10 µM
TGI (HS 578T breast): > 10 µM
TGI (SF-295 CNS): > 10 µM
TGI (HCC-2998 colon): > 10 µM
TGI (OVCAR-4 ovarian): > 10 µM
TGI (SK-MEL-28 melanoma): > 10 µM
TGI (MCF7 breast): > 10 µM
TGI (TK-10 renal): > 10 µM
TGI (NCI-H460 lung): > 10 µM
TGI (NCI-H226 lung): > 10 µM
TGI (LOX IMVI melanoma): > 10 µM
TGI (OVCAR-8 ovarian): > 10 µM
TGI (SF-268 CNS): > 10 µM
TGI (SNB-75 CNS): > 10 µM
TGI (SK-MEL-2 melanoma): > 10 µM
TGI (UACC-62 melanoma): > 10 µM
TGI (SW-620 colon): > 10 µM
TGI (MDA-MB-231 breast): > 10 µM
TGI (BT-549 breast): > 10 µM
TGI (MDA-N): > 10 µM
TGI (SK-MEL-5 melanoma): > 10 µM
TGI (786-0 renal): > 10 µM
TGI (KM12 colon): > 10 µM
TGI (SK-OV-3 ovarian): > 10 µM
TGI (A498 renal): > 10 µM
TGI (MDA-MB-435): > 10 µM
TGI (HCT-15 colon): > 10 µM
TGI (MOLT-4 leukemia): > 10 µM
TGI (COLO 205 colon): > 10 µM
TGI (M14 melanoma): > 10 µM
TGI (HT29 colon): > 10 µM
TGI (PC-3 prostate): > 10 µM
TGI (HOP-92 NSCLC): > 10 µM
TGI (OVCAR-5 ovarian): > 10 µM
TGI (RXF 393 renal): > 10 µM
TGI (SN12C renal): > 10 µM
TGI (RPMI-8226 leukemia): > 10 µM
TGI (SF-539 CNS): > 10 µM

COc1cc2c(cc1OC)C(=O)N(c1ccc(O)cc1)C2
TGI (T-47D breast): > 100 µM
TGI (HOP-62 NSCLC): > 100 µM
TGI (SR leukemia): > 100 µM
TGI (SNB-19 CNS): > 100 µM
TGI (K-562 leukemia): > 100 µM
TGI (U251 CNS): > 100 µM
TGI (A549 NSCLC): > 100 µM
TGI (NCI-H23 lung): > 100 µM
TGI (NCI-H522 lung): > 100 µM
TGI (ACHN renal): > 100 µM
TGI (NCI/ADR-RES ovarian): > 100 µM
TGI (OVCAR-3 ovarian): > 100 µM
TGI (CCRF-CEM leukemia): > 100 µM
TGI (DU-145 prostate): > 100 µM
TGI (IGROV1 ovarian): > 100 µM
TGI (UACC-257 melanoma): > 100 µM
TGI (EKVX NSCLC): > 100 µM
TGI (CAKI-1 renal): > 100 µM
TGI (HCT-116 colon): > 100 µM
TGI (HS 578T breast): > 100 µM
TGI (MALME-3M melanoma): > 100 µM
TGI (SF-295 CNS): > 100 µM
TGI (HCC-2998 colon): > 100 µM
TGI (OVCAR-4 ovarian): > 100 µM
TGI (SK-MEL-28 melanoma): > 100 µM
TGI (TK-10 renal): > 100 µM
TGI (NCI-H460 lung): > 100 µM
TGI (NCI-H226 lung): > 100 µM
TGI (HL-60(TB) leukemia): > 100 µM
TGI (LOX IMVI melanoma): > 100 µM
TGI (OVCAR-8 ovarian): > 100 µM
TGI (SF-268 CNS): > 100 µM
TGI (SK-MEL-2 melanoma): > 100 µM
TGI (UACC-62 melanoma): > 100 µM
TGI (SW-620 colon): > 100 µM
TGI (MDA-MB-231 breast): > 100 µM
TGI (BT-549 breast): > 100 µM
TGI (MDA-N): > 100 µM
TGI (SK-MEL-5 melanoma): > 100 µM
TGI (786-0 renal): > 100 µM
TGI (SK-OV-3 ovarian): > 100 µM
TGI (A498 renal): > 100 µM
TGI (MDA-MB-435): > 100 µM
TGI (HCT-15 colon): > 100 µM
TGI (MOLT-4 leukemia): > 100 µM
TGI (COLO 205 colon): > 100 µM
TGI (M14 melanoma): > 100 µM
TGI (HT29 colon): > 100 µM
TGI (PC-3 prostate): > 100 µM
TGI (HOP-92 NSCLC): > 100 µM
TGI (OVCAR-5 ovarian): > 100 µM
TGI (RXF 393 renal): > 100 µM
TGI (SN12C renal): > 100 µM
TGI (RPMI-8226 leukemia): > 100 µM
TGI (SF-539 CNS): > 100 µM
